In PubChem BioAssay AID540268 (Broad Institute, 2011):
Active and inactive are the calls of the source. No rule for the calls is given here.

assay: growth inhibition of yeast carrying parasite Hsp90, dose response, anti-malarial Hsp90 inhibitor project, ATP luminescence, 48 h, cherry-picked samples (AID 540268); settings: yeast expressing the parasite Hsp90, ATP luminescence;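 as to activity change, negative = inhibition: 0% = neutral control wells and -100% = positive control wells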

Structure (SMILES)	AC50 [µM]
CC(C)N1C(=O)/C(=C\c2nc3ccccc3c(=O)[nH]2)c2ccccc21	6.47
CC(C)(C)C(O)C(Cc1ccccc1Cl)n1cncn1 (centres undefined)	< 0.195
Cc1c(Cl)sn(-c2ccc(Cl)cc2)c1=O	< 0.195
COc1cc2c(cc1/C=C/[N+](=O)[O-])OCO2	3.11
O=C(C1CCN(C2CC(=O)N(c3cccc(Cl)c3)C2=O)CC1)N1CCCC1 (centres undefined)	3.94
Cc1ccc(N/N=C(\C#N)C(N)=S)c(C)c1	1.32
C=CCn1c(O)c(N=Nc2ccccc2O)c2ccccc21	8.15
CCCCCCCC/C=C\CCCCCCCC(=O)NCCO	9.25
COc1ccc(-c2nn(-c3ccccc3)cc2C(=O)N2CCN(S(=O)(=O)c3ccccc3[N+](=O)[O-])CC2)cc1	4.14
Cc1ccc(C(c2cc(Cl)c3cccnc3c2O)N2CCN(C)CC2)cc1 (centres undefined)	0.507
O=[N+]([O-])/C=C/c1ccc2c(ccn2Cc2ccccc2)c1	4.35
CCCCCCCCCCCCCCCC[N+](C)(C)CCl	4.3
CC(=NNC(=S)Nc1cccc(Cl)c1)c1ccccn1	16.6
Cc1ccc(-c2nc3cccnc3s2)cc1NS(=O)(=O)c1ccc2c(c1)OCCO2	4.12
C[C@H]1C[C@@H](C)C(=O)[C@@H]([C@H](O)CC2CC(=O)NC(=O)C2)C1	< 0.195
Cc1ccc(C(=O)c2no[n+]([O-])c2C(=O)c2ccc(C)cc2)cc1	2.03
CN(C)c1ccc(C=c2c3ccccc3n3c2cc(-c2ccccc2)[n+]3C)cc1	4.33
O=C(Oc1c(Cl)cc(Cl)c2cccnc12)c1cccs1	4.26
O=C(N/N=C/c1cc2c3c(c1O)CCCN3CCC2)c1ccccc1O	1.42
Cc1cccc(N=C2c3cc([N+](=O)[O-])ccc3-c3c2cc([N+](=O)[O-])cc3[N+](=O)[O-])c1	9.02
Cc1ccc(C(=O)ONC(=O)c2ccc(Cl)cc2)cc1[N+](=O)[O-]	0.387
CCc1sc(C(=O)Nc2nc(-c3ccccn3)cs2)cc1C	8.12
S=C1SCN(Cc2cccnc2)CN1Cc1cccnc1	4.07

Structure (SMILES)	AC50 [µM]
Cc1cccc(N2C(=O)/C(=C\c3ccc(OC(F)F)cc3)c3ccccc3C2=O)c1	4.64
Cc1cccc(C)c1NC(=O)C(Cl)C(=O)c1ccccc1 (centres undefined)	1.11
C=CC(C)(C)c1c(O)c(CC=C(C)C)c(O)c2c(=O)c3ccc(O)c(O)c3oc12	6.76
N/C(Cc1ccc(Cl)cc1)=N\OC(=O)c1cccc2ccccc12	2.19
O=C(C#Cc1ccccc1)c1cccc([N+](=O)[O-])c1	0.291
O=C(N/N=C/c1c(O)ccc2ccccc12)c1cccc(C(F)(F)F)c1	2.86
O=C(Nc1ccc(F)cc1)c1nc(S(=O)(=O)Cc2ccccc2)ncc1Cl	5.68
O=[N+]([O-])c1ccc(S(=O)Cc2ccccc2)c([N+](=O)[O-])c1 (centres undefined)	2.55
CN(C)/C=C/C(=O)c1ccc(N2CCN(c3ncc(C(F)(F)F)cc3Cl)CC2)cc1	4.16
Cc1csc(CNc2ncnc3ccc(-c4cccc(Cl)c4)cc23)c1	8.17
COc1ccc([N+](=O)[O-])c(S(=O)(=O)c2ccc(Cl)cc2)n1	1.27
Cc1ccc(-c2onc3ccc(C(=O)/C=C/N(C)C)cc23)cc1	5.98
CN(CC(=O)Nc1cccc(F)c1)C(=O)c1cn(-c2ccccc2)nc1-c1ccc(Cl)cc1	7.8
O=C1C=CC(=O)N1c1ccc(Nc2ccccc2)cc1	< 0.195
O=c1cc2oc3cc(O)c(O)cc3c(-c3ccccc3[N+](=O)[O-])c-2cc1O	3.19
CCc1ccc2c(c1)/C(=C/C(=O)c1cccs1)C(=O)N2	4.7
O=C(N/N=C/c1sc2ccccc2c1O)c1ccccc1	1.13
CCC1C/C(=C\c2cccnc2)C(=O)/C(=C/c2cccnc2)C1 (centres undefined)	9.06
O=[N+]([O-])c1ccc(NC(c2ccccc2)c2ccc3cccnc3c2O)cc1 (centres undefined)	< 0.195
C/C(=N\Nc1nc2ccccc2s1)c1ccc(Br)s1	4.47
COc1cc(/C=N/O)cc(Br)c1OCc1cccc(Cl)c1	8.2
O=[N+]([O-])c1ccc(O)c2ncccc12	1.66
Cc1[nH]c(N=Nc2ccccc2)nc1N=Nc1ccccc1	4.41

Structure (SMILES)	AC50 [µM]
Cc1cc(C)c2c(N=NN(C)C)[nH]nc2n1	3.92
COc1ccc(C(=O)COC(=O)c2cc([N+](=O)[O-])ccc2N2CCOCC2)c(OC)c1	13.8
O=C1/C(=C\c2ccc(Cl)c(Cl)c2)CN(C(=O)CCN2CCOCC2)C/C1=C/c1ccc(Cl)c(Cl)c1	3.5
Cc1cc(C)cc(N2C(=O)C=CC2=O)c1	< 0.195
O=S(=O)(/C=C/c1ccccc1)NC1CCCCCCC1	1.18
CN(C)CC1CC/C(=C\c2ccc(O)cc2)C1=O (centres undefined)	5.54
CCc1ccc(NC(=O)c2nc(S(=O)(=O)Cc3ccccc3)ncc2Cl)cc1	3.5
CCCCCCC(=O)N(O)C1CC(=O)N(c2ccc(F)cc2)C1=O (centres undefined)	1.32
O=C(NC(c1ccc(Cl)cc1)c1cc(Cl)c2cccnc2c1O)c1cccnc1 (centres undefined)	24.4
Cc1ccc(C(=O)OCn2ncc(Cl)c(Cl)c2=O)cc1	3.23
OCCOCCn1c(C2CCCN2c2nc(-c3ccc(F)cc3)cs2)nc2cc(Cl)c(Cl)cc21 (centres undefined)	6
O=C1C=CC(=O)N1c1ccc(OC(F)F)cc1	0.421
c1cnc2c(c1)ccc1cccnc12	6.61
CCCCCCCCCCOC(=O)Cn1c(COc2ccc(OC)cc2)[n+](C)c2ccccc21	24.4
CC(C)(C)c1ccc(-n2nc(C#N)c(Cl)cc2=O)cc1	4.31
COc1ccc2c(c1)[C@H]1[C@H](CO2)[C@H](c2ccccc2)[C@]2(C)C(=O)Nc3ccc(Br)cc3C(=O)N12	1.74
O=[N+]([O-])c1cc2no[n+]([O-])c2cc1N1CCCCC1	0.877
COc1ccccc1C(=O)Nc1nc2ccccc2[nH]1	1.22
CCc1ccc(S(=O)(=O)N(C(=O)c2ccncc2)c2ccc(OC(=O)c3ccncc3)cc2)cc1	1.28
CN(C)/C=C/C(=O)c1ccc(Oc2ccccc2)cc1	3.92
CCC1=NN2C(=N)/C(=C\c3cccn3-c3ccc(C)cc3C)C(=O)N=C2S1	8.14
CC1=C/C(=N\OS(=O)(=O)c2ccccc2)C(C(C)C)=CC1=O	0.827
CCCNC(=O)c1nnsc1S(=O)(=O)c1ccc(Cl)cc1	0.758

Structure (SMILES)	AC50 [µM]
Cc1ccc(NC(=O)c2cc(N3C(=O)C=CC3=O)ccc2N2CCOCC2)cc1Cl	< 0.195
O=S(=O)(Nc1nc2ccccc2nc1N1CCN(c2ccccn2)CC1)c1ccc(Cl)cc1	8.25
Cn1c2ccccc2c2ccc3c(c21)C(=O)C=CC3=O	8.02
COc1ccc(N=Cc2cc(Cc3ccccc3Cl)cc([N+](=O)[O-])c2O)cc1OC	1.5
C(C#CCCCCCCCCC[n+]1ccccc1)#CCCCCCCCCC[n+]1ccccc1	4.06
CC(C)(C)C1C/C(=C/c2ccccn2)C(=O)/C(=C/c2ccccn2)C1 (centres undefined)	8.29
CC(C)=CCc1c2c(c3occ(-c4ccc(O)c(O)c4)c(=O)c3c1O)C=CC(C)(C)O2	8.75
O=C(O)/C=C/c1cn(-c2ccccc2)nc1-c1cc2ccccc2o1	16
COc1cc(/C=C/[N+](=O)[O-])ccc1OC(=O)c1cc2ccccc2oc1=O	1.3
Cc1ccc(NC(=S)NCC23C=CC(O2)C2C(=O)N(c4ccc(C)cc4)C(=O)C23)cc1 (centres undefined)	8.61
CCCC(=O)NC(c1cccs1)c1cc(Cl)c2cccnc2c1O (centres undefined)	1.58
O=C1CC(N2CCN(c3nc4ccccc4s3)CC2)C(=O)N1Cc1cccs1 (centres undefined)	4.66
O=C1C=CC(=O)N1c1cccc(-c2ccccc2)c1	< 0.195
Cc1ccc2nc(/C(C#N)=C\c3ccc([N+](=O)[O-])o3)[nH]c2c1	< 0.195
Oc1ccccc1C1=NN(c2ccccc2)C(c2ccccc2)C1 (centres undefined)	4.3
Oc1ccc(Cl)cc1Sc1cc(Cl)ccc1O	3.07
O=C(N/N=C/c1sc2ccccc2c1O)c1cccc2ccccc12	17
Clc1ccc(CCC(Cn2ccnc2)Sc2c(Cl)cccc2Cl)cc1 (centres undefined)	< 0.195
O=C(c1ccc(-c2ccccc2)cc1)C1CCCN(C(=O)c2cncs2)C1 (centres undefined)	2.72
Cc1ccc(NC(=O)c2cc(N3C(=O)C=CC3=O)ccc2Cl)cc1C	0.92
CC(=NNc1nc2ccccc2o1)c1cc2ccccc2cn1	17.7
N#C/C(=C\c1ccc([N+](=O)[O-])o1)C(=O)Nc1ccc(F)cc1	0.33
N/C(Cc1ccc(Cl)cc1Cl)=N\OC(=O)c1cccs1	6.39

Structure (SMILES)	AC50 [µM]
O=C1CCCN1CCC1CCN(C2CC(=O)N(c3ccc(Cl)cc3)C2=O)CC1 (centres undefined)	4.79
CCOC(=O)C(=Cc1ccc(-n2cncn2)cc1)C(=O)OCC	6.51
Oc1ccc(N=Nc2c(O)ccc3ccccc23)cc1	7.02
COc1ccc(NC(=O)/C(Cl)=C(/Cl)S(=O)Cc2ccccc2)cn1 (centres undefined)	2.54
CC(C)N=c1scc(-c2cccs2)n1/N=C/c1ccc(O)c(O)c1O	7.43
CCN(CC)C(=S)SSC(=S)N(CC)CC	4.55
O=C(/C=C/c1ccccc1)NC(=S)NNC(=O)c1cnccn1	3.69
CCOc1cc(S(=O)(=O)NC2CCCCCC2)ccc1F	5.56
O=C(OC12CC3CC(CC(C3)C1)C2)c1ccc(NCc2cc(O)ccc2O)cc1	8.91
O=[S@]1Oc2ccccc2-c2ccccc21	1.67
COc1cc(C=NO)nc(-c2ccccn2)c1	2.32
OC(Cn1cncn1)(c1ccc(F)cc1)c1ccc(Cl)cc1 (centres undefined)	< 0.195
CC(C)Oc1ccc(C(=O)/C=C2/C(=O)Nc3ccccc32)cc1	2.62
CCCCC(CC)CN=C(N)NC(N)=NCCCCCCN=C(N)NC(N)=NCC(CC)CCCC (centres undefined)	4.34
Cc1cc(C(C)(C)CC(C)(C)C)ccc1OCCOCC[N+](C)(C)Cc1ccccc1	7.8
Cc1ccc(OCc2n[nH]c(=S)n2C2CCCCC2)cc1	23.6
CC(C)N1CCN(c2ccc(OC[C@H]3CO[C@](Cn4cncn4)(c4ccc(Cl)cc4Cl)O3)cc2)CC1	1.5
Cc1ccc(Nc2nc(N)c([N+](=O)[O-])c(N3CCCC(C)C3)n2)cc1C (centres undefined)	3.73
O=C(/C=C/c1ccc(Cl)c([N+](=O)[O-])c1)c1cccnc1	0.806
Cc1cc(-c2n[nH]c(=S)n2/N=C/C(Br)=C/c2ccccc2)n[nH]1	15
CN(C)/C=C/C(=O)/C=C/c1cn(-c2ncc(C(F)(F)F)cc2Cl)c2ccccc12	4.18

same assay, conditions: yeast expressing the parasite Hsp90, ATP luminescence, at 26 µM (top of the series)

Structure (SMILES)	activity change, negative = inhibition
Cc1cc(Br)c2c(c1)/C(=C/C(=O)c1cccs1)C(=O)N2	-12.3% (inactive)
